Reference: patent US20190183894A1, “METHOD OF TREATMENT OF DIABETIC FOOT ULCERS” (Malesil Research & Technology LLC, priority 2017, published 2019)
Like-named read-outs stand apart in the source and are kept apart here.

How the values were obtained:
[1] = system: diabetic patients with grade 2 and grade 3 ulcers (Wagner classification); type: in vivo, human
Procedure: In order to assess the effect of sildenafil maleate in treatment of diabetic foot ulcers, a 12-week open-label longitudinal study was conducted to compare the conventional treatment and the conventional treatment with simultaneous administration of sildenafil maleate.
Diabetic patients with grade 2 and grade 3 ulcers were selected, according to Wagner classification and complying with the following inclusion and exclusion criteria:
Inclusion Criteria: • Male or female patients with type-2 Diabetes Mellitus • Age younger than 80 years • Grade-2 or -3 foot or leg ulcer, of any origin according to Wagner classification, without compromising tendons nor bone, with a progression time not higher than 3 months. • Presence or absence of localized infection • Without peripheral vascular obstruction
Exclusion Criteria • Type-1 Diabetes Mellitus patients • Grade-4 foot or leg ulcer according to Wagner classification or foot or knuckle necrosis • Peripheral vascular obstruction (ankle/arm index lower than 0.3) • Patients with creatinine higher than 1.2 mg/dL or blood urea nitrogen (BUN) higher than 50 • Transaminases 2 times above baseline • Microalbuminuria higher than 100
Patients who meet inclusion and exclusion criteria, who voluntarily accept to participate in the study and further signing a written consent, are randomly assigned to two study groups:
Group I: Conventional treatment
Group II: Conventional treatment with simultaneous administration of sildenafil maleate.
Patients are required to perform wound treatment and to register lesion progression.
Visit 1 • Signature of written consent • Physical examination • Petition of clinical lab examinations: complete blood count, glycosilated hemoglobin (HbA1c), total colesterol, total lipids, triglycerides, HDL-colesterol, urea, creatinine, microalbumina, aspartate aminotransferase (TGO), alanine aminotransferase (TGP), reactive, ultra-sensitive C-protein (PCR-u), urine test, pre and postprandial glycemia, lesion culture when required. • Conventional healing of lesion • Arterial Doppler request of affected limb • Provide treatment with antibiotics when necessary
Visit 2 (1 to 3 Days after Visit 1) • Interpretation of lab examination and Doppler study • Clinical/physical lesion examination • Patient inclusion/exclusion decision into the study • Random assignment of study groups • Registration of lesion characteristics (lesion photographs) • Assessment of metabolic control
Visit 3 (1 to 3 Days after Visit 2) • Registration of lesion progression (lesion photographs) • Assessment of patient's metabolic control • Delivery of corresponding medicaments (antibiotics and sildenafil maleate as applicable) • Registration de adverse events
Visit 4 Until Week 12 of Study (2 to 3 Times Per Week) • Registration of lesion progression (lesion photographs) • Registration de adverse events • Assessment of metabolic control
Visit 5 (1 to 5 Days after Final Visit) • Registration of lesion progression (lesion photographs) • Registration of adverse events • Compliance with study medication intake • Education for future lesion prevention
Wound treatment applied to all patients during each visit consists of cleaning with […] and distilled water, using sterile material; ointment MEBO® (Moist exposed Burn Treatment) was locally applied and dressing with sterile gauze when needed.
Study medication was delivered in accordance with the previously established protocol; compliance with medication intake and presence of adverse events was verified. Medication was suspended in case of showing any adverse effect, even a mild event associated with study medicament (sildenafil maleate).

[2] = cited from earlier work

sildenafil maleate
effect on macro and microcirculation, granulation and healing of ulcers ([1]; 10-mg daily dose, oral, diabetic foot patients): improvement in macro and microcirculation | recovery of patients with previous amputations ([1]; Group II patients who had previous amputations): total recovery | blood flow and health status of lower limbs after end of treatment ([1]; Group II patients whose treatment concluded before the 12 weeks): kept an improvement in blood flow | patients who obtained a satisfactory result (lesion healing) ([1]; Group II: conventional treatment with simultaneous sildenafil maleate): 100% | adverse events ([1]; in vivo): did not experience adverse events | side effects ([1]; in vivo, po): does not show side effects | lower healing time than group with conventional treatment ([1]; patients with grade 2 ulcers): 20 days | Average healing time (Group II) ([1]; ulcer grade 2 according to Wagner scale): 47 days | Average healing time (Group II) ([1]; ulcer grade 3 according to Wagner scale): 81 days | Average healing time (Group II) ([1]; ulcer grades 2 and 3 according to Wagner scale): 55 days | decrease of recovery time ([1]; vs conventional treatment, regardless of ulcer grade and lesion area): about 20 days | absorption compared with sildenafil citrate ([2]; in vivo): faster absorption | bioequivalence with sildenafil citrate ([2]; in vivo): bioequivalent | plasma protein binding ([2]; in vivo): mostly bound to plasma proteins | delay of maximum peak ([2]; ingested during a high fat content meal): 60 min | time to maximum concentration ([2]; oral administration, fasting subjects): 60 min | distribution volume ([2]; stationary media (steady state)): 105 L
